Reference: patent publication US7332615B2, “Hydrophilic analogs of 4,8-dihydrobenzodithiophene-4,8-diones as anticancer agents” (Industrial Technology Research Institute, priority 2004, dated 2008)
pIC50: −log10 of the molar value. Like-named read-outs stand apart in the source and are kept apart here.

Tests used:
HT-29 = experiment: Cytotoxicity Assays Method A (alamarBlue anti-proliferative assay), HT-29; type: cell-based; conditions: for TGI (Total growth Inhibition) / LC50 (50% lethal concentration): HT-29, 72-hour incubation, alamarBlue; for pIC50 / LC50 (50% lethal concentration): Homo sapiens; for pIC50: HT-29, 72 h, read-out: IC50 (50% Inhibition Concentration)
Description: (§1) Cytotoxicity Assays Method A (HUVEC, MCF-7, HT-29, Hep 3B and NCl-H460) [S. A. Ahmed, R. M. Gogal Jr., and J. E. Walsh, Journal of Immunological Methods 170: 211-224, (1994): M. R. Boyd, Status of the NCl preclinical antitumor drug discovery screen. (Published by J. B. Lippincoft Company, Philadelphia, Pa. 19105, USA) Principles & Practices of Oncology Updates 3 # 10: 1-12, (1989); M. R. Boyd, et al. Data display and analysis strategies for the NCl disease-oriented in vitro antitumor drug screen. In: Cytotoxic anti-cancer drugs: models and concepts for drug discovery and development. Boston: Kluwer Academic, Pages; 11-34, (1992)]
(§2) The test compounds were dissolved in 100% DMSO and then diluted with sterile distilled water to obtain initial working solutions of 20000, 2000, 200, 20 and 2 μM in 80% DMSO. A 200 fold dilution was further made in culture media to generate final assay concentrations of 100, 10, 1, 0.1 and 0.01 μM in 0.4% DMSO.
(§3) Aliquots of 100 μl of cell suspension (about 1.5-3.0×10^3/well) were placed in 96-well microtiter plates in an atmosphere of 5% CO2 at 37° C. After 24 hours, 100 μl of growth medium and 1 μl of test solution or vehicle (80% DMSO) were added respectively per well in duplicate for an additional 72-hour incubation. Thus, the final concentration of DMSO was 0.4%. The test compounds, IIa-1, IIb-1 and VII-1 were evaluated at concentrations of 100, 10, 1, 0.1 and 0.01 μM. At the end of incubation, 20 μl of alamarBlue 90% reagent was added to each well for another 6-hour incubation before detection of cell viability by fluorescent intensity. Fluorescent intensity was measured using a Spectraflour Plus plate reader with excitation at 530 nm and emission at 590 nm.
(§4) The measured results was calculated by the following formula: PG(%)=100×(Mean Ftest−Mean Ftime0)/(Mean Fctrl−Mean Ftime0)] If(Mean Ftest−Mean Ftime0)<0, then PG(%)=100×(Mean Ftest−Mean Ftime0)/(Mean Ftime0−Mean Fblank) wherein PG represents percent growth;
(§5) A decrease of 50% or more (≧50%) in fluorescent intensity relative to the vehicle-treated control indicates significant cytostatic or cytotoxic activity, and semi-quantitative values for IC50, TGI and LC50 were then determined by nonlinear regression using GraphPad Prism (GraphPad Software, USA).
(§6) IC50 (50% Inhibition Concentration); Test compound concentration where the increase from times in the number or mass of treated cells was only 50% as much as the corresponding increase in the vehicle-control at the end of experiment.
(§7) TGI (Total Growth Inhibition): Test compound concentration where the number or mass of treated cells at the end of experiment was equal to that at time0.
(§8) LC50 (50% Lethal Concentration): Test compound concentration where the number or mass of treated cells at the end of experiment was half that at time.
(§9) The assays were used to detect changes in cell proliferation based on the ability of viable cells to cause alamarBlue to change from its oxidized to a reduced form. With the results obtained from the alamarBlue reaction, cell proliferation can be quantified and metabolic activity of viable cell can be examined.
(§10) The succinate derivatives of compounds IIa-1, IIb-1 and VII-1 were tested for possible effect on the proliferation of four human tumor cell lines ˜MCF-7 (breast), HT-29 (colon), Hep3B (liver), and NCl—H 460 (lung) as well as one human umbilical vein endothelial cell (HUVEC) at assay concentration from 0.01 to 100 μM, through serial 10-fold dilution.

[1] = Cytotoxicity Assays Method A (alamarBlue anti-proliferative assay), HUVEC; type: cell-based; conditions: human, HUVEC (human umbilical vein endothelial cells), 72-hour incubation, alamarBlue
Description: as §1, §2, §3, §4, §5, §6, §7, §8, §9, §10

HUVEC = experiment: as above; type: cell-based; conditions: for TGI (Total growth Inhibition): 72-hour incubation, alamarBlue; for pIC50: Homo sapiens, 72 h, read-out: IC50 (50% Inhibition Concentration)
Description: as §1, §2, §3, §4, §5, §6, §7, §8, §9, §10

[2] = test system: epidermoid carcinoma of the nasopharynx (KB); experiment: Cytotoxicity Assays Method C, KB; type: cell-based; conditions: 72 h, read-out: IC50 KB
NCI-H460 = experiment: Cytotoxicity Assays Method A (alamarBlue anti-proliferative assay), NCI-H460; type: cell-based; conditions: for pIC50 / CC50: Homo sapiens; for pIC50: NCI-H460, 72 h, read-out: IC50 (50% Inhibition Concentration); for CC50 / TGI (Total growth Inhibition): NCI-H460, 72-hour incubation, alamarBlue; for CC50: read-out: LC50 (50% Lethal Concentration)
Description: as §1, §2, §3, §4, §5, §6, §7, §8, §9, §10

[3] = test system: Human promyeloid leukemia HL-60 cells; experiment: Cytotoxicity Assays Method B (MTT proliferation assay), HL-60; type: cell-based; conditions: Homo sapiens, read-out: IC50 (concentration at which 50% of the cells are inhibited from growing)
Method: Cytotoxicity Assays Method B (HL-60) [H. M. Chen et al. Chin. Pharm. J. 53, 157-167 (2001)]
Human promyeloid leukemia HL-60 cells were obtained from the American Type
Culture Collection (Manassas, Va., USA) and the Culture Collection and Research Center(CCRC) (Tai wan, ROC). Human promyeloid leukemia HL-60 cells were cultured in suspension in RPMI-1640 medium (GIBCO, Grand Is land, USA), containing 10% fetal bovine se rum (GIBCO, Grand Is land, USA), 100 unit/mL penicillin, […] streptomycin and 1% L-glutamine at 37° C. in a humidified atmosphere of 5% CO2 in air. Cells were split every day to maintain the cell numbers between 2−5×10^5/mL. Cell numbers were assessed by the standard procedure of leukocyte counting using a hemocytometer and cell viability was checked by the ability of cells to exclude Trypan blue.
Cellular proliferation was determined by the MTT [3-(4,5-dimethylthiazol-2-yl)-2,5-diphenyltetrazolium bromide] as say. Briefly, […] of MTT (5 mg/mL) was added to each well of 96-well plates containing 1×10^5 cells after treatment with different concentrations of samples for 4 days. The reaction was stopped after 2 h by adding […] of 0.04 N HCl in isopropanol and the OD570 nm was determined by a minicolorimetric reader. Each concentration treatment was performed in triplicate.

Hep 3B = experiment: Cytotoxicity Assays Method A (alamarBlue anti-proliferative assay), Hep 3B; type: cell-based; conditions: for cytotoxicity against Hep3B (in words): summary of Table 1; for TGI (Total growth Inhibition) / CC50: Hep-3B, 72-hour incubation, alamarBlue; for pIC50 / CC50: Homo sapiens; for cytotoxicity against Hep3B (in words) / pIC50 / CC50: Hep3B; for pIC50: 72 h, read-out: IC50 (50% Inhibition Concentration); for CC50: read-out: LC50 (50% Lethal Concentration)
Description: as §1, §2, §3, §4, §5, §6, §7, §8, §9, §10

[4] = test system: p-gp-expressing epidermoid carcinoma of the nasopharynx (KB-VIN); experiment: Cytotoxicity Assays Method C, KB-VIN; type: cell-based; conditions: for pIC50: 50% reduction in cell number after 72 hr of incubation; for activity against the MDR cell line KB-VIN (in words): summary of Table 3
Description: Cytotoxicity Assays Method C (KB, KB-VIN, AS49, HCT-8, PC-3) [K. H. Lee et. al. Planta Med. 54, 308-312 (1998), Monk A et. al. J. Natl. Cancer Inst. 83, 757-766 (1991).] The cell lines included epidermoid caninoma of the nasopharynx (KB), p-gp-expressing epidermoid caninoma of the nasopharynx (KB-VIN), lung carcinoma (A-549), ileocecal carinoma (HCT-8) and prostate cancer (PC-3) cell lines.

MCF-7 = experiment: Cytotoxicity Assays Method A (alamarBlue anti-proliferative assay), MCF-7; type: cell-based; conditions: for pIC50 / CC50: Homo sapiens; for pIC50: MCF7, 72 h, read-out: IC50 (50% Inhibition Concentration); for CC50: MCF7, read-out: LC50 (50% Lethal Concentration); for CC50 / TGI (Total growth Inhibition): MCF-7, 72-hour incubation, alamarBlue; for cytotoxicity against MCF-7 (in words): MCF-7, summary of Table 1
Description: as §1, §2, §3, §4, §5, §6, §7, §8, §9, §10

lung carcinoma (A-549) = experiment: Cytotoxicity Assays Method C, A-549; type: cell-based; conditions: Homo sapiens, A549, 72 h, read-out: IC50 A549
prostate cancer (PC-3) = experiment: Cytotoxicity Assays Method C, PC-3; type: cell-based; conditions: for pIC50: 72 h, read-out: IC50 PC-3; for activity against the androgen-insensitive prostate cancer cell line PC-3 (in words): PC-3, summary of Table 3
[5] = test system: ileocecal carcinoma (HCT-8); experiment: Cytotoxicity Assays Method C, HCT-8; type: cell-based; conditions: Homo sapiens, HCT-8, 72 h, read-out: IC50 HCT-8

SMILES | TGI (Total growth Inhibition) (HT-29) [nM] | pIC50 (HT-29) | LC50 (50% lethal concentration) (HT-29) [nM] | LC50 (50% lethal concentration) at 72 h [1] [nM] | TGI (Total growth Inhibition) (HUVEC) [nM] | pIC50 (HUVEC) | pIC50 [2] | pIC50 (NCI-H460) | CC50 (NCI-H460) [nM] | TGI (Total growth Inhibition) (NCI-H460) [nM] | pIC50 ([3]; HL-60, 96 h) | cytotoxicity against Hep3B (in words) (Hep 3B) | TGI (Total growth Inhibition) (Hep 3B) [nM] | pIC50 (Hep 3B) | CC50 (Hep 3B) [nM] | pIC50 ([4]; Homo sapiens, KBVIN, 72 h) | pIC50 (MCF-7) | pIC50 (lung carcinoma (A-549)) | pIC50 (prostate cancer (PC-3)) | pIC50 [5] | other results
O=C(O)CCC(=O)OCc1cc2c(s1)C(=O)c1sccc1C2=O [IIa-1, Mono-[1-(4,8-dioxo-4,8-dihydrobenzo[1,2-b:5,4-b′]dithiophen-2-yl)-methyl]succinate] | 22000 | 4.96 | 45000 | 34000 | 19000 | 5.00 | 5.69 | 6.09 | 3500 | 1700 | 6.33 | significant activity | 5100 | 5.55 | 9200 | 5.35 | 5.47 | 5.39 | 5.87 | 5.39 | CC50 (MCF-7): 14000 nM; TGI (Total growth Inhibition) (MCF-7): 6900 nM; cytotoxicity against MCF-7 (in words) (MCF-7): significant activity
O=C(O)CCCC(=O)OCc1cc2c(s1)C(=O)c1sccc1C2=O [IIa-2, Mono-[1-(4,8-dioxo-4,8-dihydrobenzo[1,2-b:5,4-b′]dithiophen-2-yl)-methyl]pentanedioate] | – | – | – | – | – | – | 5.65 | – | – | – | – | – | – | – | – | 5.86 | – | 5.68 | 6.12 | 5.78 | pIC50 ([3]; 96 h, HL-60, MTT, treatment for 4 days): 6.15; melting point: 220 °C (dec.)
CC(OC(=O)CCC(=O)O)c1cc2c(s1)C(=O)c1sccc1C2=O (stereo not drawn) [IIb-1, Mono-[1-(4,8-dioxo-4,8-dihydrobenzo[1,2-b:5,4-b′]dithiophen-2-yl)-ethyl]succinate] | 2000 | 5.37 | 89000 | 89000 | 31000 | 4.96 | 6.33 | 6.19 | 2100 | 1200 | 6.59 | significant activity | 1800 | 5.96 | 2900 | 6.60 | 6.09 | 6.24 | 6.66 | 6.04 | activity against the MDR cell line KB-VIN (in words) [4]: potent activity; CC50 (MCF-7): 27000 nM; TGI (Total growth Inhibition) (MCF-7): 4700 nM; cytotoxicity against MCF-7 (in words) (MCF-7): significant activity; activity against the androgen-insensitive prostate cancer cell line PC-3 (in words) (prostate cancer (PC-3)): potent activity
CC(OC(=O)CCC(=O)O)c1cc2c(s1)C(=O)c1ccsc1C2=O (stereo not drawn) [VII-1, Mono-[1-(4,8-dioxo-4,8-dihydroxybenzo[1,2-b;4,5-b′]dithiophen-2-yl)-ethyl]succinate] | 38000 | 5.35 | > 100000 | > 100000 | 57000 | 4.96 | 6.72 | 6.39 | 3000 | 1100 | 6.59 | significant cytotoxicity | 1900 | 6.00 | 3400 | – | 6.02 | 6.33 | 6.80 | 6.38 | activity against HT-29 (in words) (HT-29; HT-29, summary of Table 1): moderate activity; pIC50 [4]: 6.66; activity against the MDR cell line KB-VIN (in words) [4]: potent activity; CC50 (MCF-7): 31000 nM; TGI (Total growth Inhibition) (MCF-7): 5500 nM; cytotoxicity against MCF-7 (in words) (MCF-7): significant cytotoxicity; activity against the androgen-insensitive prostate cancer cell line PC-3 (in words) (prostate cancer (PC-3)): potent activity
